Experimental data: US20080275135A1, “Resorcinol Derivatives and Their Use for Lowering Blood Pressure” (priority 2004, published 2008)
“Also recorded” adds a separate entry of the source.

Assays:
[1] = system: rat aortic rings; assay: Relaxation of phenylephrine pre-contracted aortic rings; parameters: species or system Sabra rats; settings: for maximum vasorelaxation: FIG. 2A
Protocol: Abdominal aortic rings of male Sabra rats of 300 g average body weight were obtained from the animal facility of the Hebrew University of Jerusalem, campus Ein Kerem, Jerusalem, Israel. The animals were anaesthetized by an intra-peritoneal injection of pentobarbital (50 mg kg^−1). After thoracotomy, the aorta was excised, transferred to a dish filled with Krebs-Henseleit buffer (composition in mM: NaCl 150.0, KCl 5.4, MgSO4 1.17, NaH2 PO4 1.18, NaHCO3 6.0, CaCl2 1.0, HEPES 20.0, glucose 5.5, pH 7.4), cleared of periadventitial tissue, and cut into ring segments (3 mm in length). Only segments of the abdominal aorta were used. Two stainless-steel hooks were carefully passed through the lumen of each ring. One hook was connected to an isometric force transducer (BIOPAC Instruments, Goleta, Calif.) to measure tension in the vessels. The rings were placed in a 10-ml organ bath, gassed with 5% CO2 in O2 and maintained at 37° C. The rings were stretched until an optimal basal tension of 1.0 g. After this tension was achieved they were allowed to equilibrate for 60 minutes with the bath fluid being changed every 15-20 min. Baseline tension usually stabilized within 60 min of mounting, during which time there were four replacements of bathing solution. The segment was then pre-contracted by 5 μM phenylephrine. […] The levels of relaxation were then measured. The endothelial function was assessed by testing the relaxant effect of acetylcholine (10 nM-[…]) on aortic rings pre-contracted with phenylephrine. Failure of acetylcholine to elicit relaxation of aortic rings previously subjected to rubbing of the intimal surface was taken as evidence of endothelium removal. Concentration-response curves were generated by cumulative addition of the agonist. Whenever antagonists (PTX 0.5 μg/ml, SR-141716 A, SR-144528 or 10 μM of 0-1918) were used, they were added 20 min before the agonist (FIG. 2B). All experiments were conducted with aluminum foil-covered organ bath to prevent light-induced degradation of the drugs.

[2] = target: T1, cannabinoid receptor CB1 (Rattus norvegicus, UniProt P20272); assay: Cannabinoid receptor binding, [3H]HU-243 displacement, synaptosomal membranes; settings: data not shown
T1 construct: from tissue
T1 sequence (P20272 whole entry): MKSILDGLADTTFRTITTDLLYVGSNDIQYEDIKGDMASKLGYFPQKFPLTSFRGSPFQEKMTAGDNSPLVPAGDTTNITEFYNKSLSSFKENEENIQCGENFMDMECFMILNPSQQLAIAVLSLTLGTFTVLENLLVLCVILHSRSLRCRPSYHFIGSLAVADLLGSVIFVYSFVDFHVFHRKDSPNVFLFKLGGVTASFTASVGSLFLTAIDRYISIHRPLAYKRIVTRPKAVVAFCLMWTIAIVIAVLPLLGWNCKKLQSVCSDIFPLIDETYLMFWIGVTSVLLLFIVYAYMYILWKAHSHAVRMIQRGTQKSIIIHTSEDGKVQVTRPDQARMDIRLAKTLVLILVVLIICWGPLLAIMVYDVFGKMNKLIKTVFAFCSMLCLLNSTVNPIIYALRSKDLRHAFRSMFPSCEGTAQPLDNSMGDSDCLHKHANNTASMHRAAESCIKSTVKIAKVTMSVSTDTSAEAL
Protocol: (§1) The protocol for cannabinoid receptor binding has been previously described [Devane W. A. et al. (1992) Science 258, 1946-1949]. […] Bound and free radioligand were separated by centrifugation. The data were normalized to 100% of specific binding, which was determined with 50 nM unlabeled HU-243. The Ki value was determined using the program GraphPad Prism (Version 3.02) which follows the Cheng-Prusoff equation. A sigmoid dose-response (variable slope) built-in equation in this Prism program was used to fit the curves.

[3] = target: T2, cannabinoid receptor CB2 (Homo sapiens, UniProt P34972); assay: Cannabinoid receptor binding, [3H]HU-243 displacement, transfected cells; settings: data not shown
T2 construct: expressed in transfected cells
T2 sequence (P34972 whole entry): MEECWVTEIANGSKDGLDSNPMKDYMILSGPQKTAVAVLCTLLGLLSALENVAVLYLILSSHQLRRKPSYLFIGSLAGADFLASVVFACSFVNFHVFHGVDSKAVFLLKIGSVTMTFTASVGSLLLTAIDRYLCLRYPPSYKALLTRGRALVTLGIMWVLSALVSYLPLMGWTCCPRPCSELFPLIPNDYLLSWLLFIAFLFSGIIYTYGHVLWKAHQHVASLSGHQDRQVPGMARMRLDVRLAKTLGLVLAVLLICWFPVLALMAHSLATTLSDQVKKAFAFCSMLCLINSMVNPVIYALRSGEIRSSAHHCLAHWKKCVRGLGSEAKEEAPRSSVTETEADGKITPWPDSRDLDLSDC
Protocol: as §1

[4] = Blood pressure in anesthetized rats after i.v. bolus; assay type: in vivo, Sabra rats
Protocol: The protocol for testing blood pressure was applied essentially as previously described [Shochina, M. and Horowitz, M. (1989) J. Therm. Biol. 14, 109 113]. Adult male Sabra rats weighing between 225 to 250 g had their femoral vein cannulated for intravenous (i.v.) drug administration. Anesthesia was induced by the intraperitoneal (i.p.) injection of pentobarbital sodium 6%, 60 mg/kg. The femoral artery was cannulated and a catheter (PE 10 cannulae) was connected to a pressure transducer for continuous monitoring of blood pressure with a physiograph (AcKnowledge program). After a 30 minute stabilization period, the animals were injected with either vehicle (sahine:ethanol:Emulphor® 18:1:1) or the drug (Compound 1, as described above, varying from 1 to 10 mg/kg) injected in bolus i.v. in volumes ≧500 μl. The changes in blood pressure were monitored for 60 minutes. […] The hypotensive activity of Compound 1 leads the way to a new class of atypical cannabinoids with no psychotropic activity and with a mechanism of action differing from the anti-hypertensive drugs known to date.

[5] = target: T1, cannabinoid receptor CB1; settings: high affinity receptor probe; read-out: dissociation constant; cited from earlier work
[6] = system: rat aortic rings; settings: literature, Offertaler et al. 2003; cited from earlier work

CCCCCCC(C)(C)c1cc(O)c(C/C=C(\C)CCC=C(C)C)c(O)c1 [Compound 1, 2-geranyl-5-(1,1-dimethylheptyl)-resorcinol]
antagonism of relaxation by O-1918 ([1]; 10 μM O-1918 added 20 min before agonist, FIG. 2B, listed as CBG-DMH): did not result in antagonism; also recorded: does not antagonize
relaxation of pre-contracted segments ([1]; cumulative doses, 5 μM phenylephrine pre-contraction): led to relaxation of the contracted segments
maximum vasorelaxation ([1]; denuded artery): 25%
maximum vasorelaxation ([1]; intact artery): 55%
aortic vasorelaxant effect in presence of pertussis toxin ([1]; pertussis toxin 0.5 μg/ml, data not shown): inhibited in the presence of pertussis toxin
vasodilator function ([1]; preliminary data): functions as a vasodilator
binding to CB1 [2]: no binding
binding to CB2 [3]: no binding
effect on blood pressure (BP) ([4]; 2.5 mg/kg i.v., FIG. 1): Reduction in blood pressure is already observed
change in heart rate ([4]; 5 mg/kg i.v.): without causing change in the heart rate
effect on blood pressure (BP) ([4]; 5 mg/kg i.v.): caused hypotension
effect on blood pressure (BP) ([4]; 5 mg/kg i.v., listed as CBG-DMH): the effect becomes much more pronounced
mean systolic blood pressure over 60 minutes ([4]; 1 to 10 mg/kg bolus i.v., FIG. 1): clear reduction of the systolic blood pressure
antagonism of hypotensive effect by CBD ([4]; CBD in similar doses): antagonized by CBD

CCCCCCC(C)(C)c1cc(O)c2c(c1)OC(C)(C)[C@@H]1CC[C@@H](CO)C[C@@H]21 [[^3H]HU-243]
Kd [5]: 0.045 nM

C=C(C)[C@@H]1CCC(C)=C[C@H]1c1c(O)cc(O)cc1CCCCC (relative stereo) [Abn-CBD, (−)-4-(3-3,4-trans-p-menthadien-1,8)-yl-olivetol]
antagonism by O-1918 [6]: antagonized by 0-1918
